PubChem BioAssay (NCI)
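Each compound was tested at five concentrations against cells in 96-well plates for 48 hours. GI50 marks 50% less growth. The concentration for full growth arrest is given as TGI.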

Assays:
Experiment in all cases: NCI tumour cell line growth inhibition, 48 h
BT-549 breast = tested on: BT-549 breast
HCT-116 colon = tested on: HCT-116 colon
IGROV1 ovarian = tested on: IGROV1 ovarian
K-562 leukemia = tested on: K-562 leukemia
NCI-H460 lung = tested on: NCI-H460 lung
SF-268 CNS = tested on: SF-268 CNS
SK-MEL-2 melanoma = tested on: SK-MEL-2 melanoma
SK-MEL-28 melanoma = tested on: SK-MEL-28 melanoma
SW-620 colon = tested on: SW-620 colon
T-47D breast = tested on: T-47D breast

| Structure (SMILES) | TGI (BT-549 breast) [µM] | TGI (HCT-116 colon) [µM] | TGI (IGROV1 ovarian) [µM] | TGI (K-562 leukemia) [µM] | TGI (NCI-H460 lung) [µM] | TGI (SF-268 CNS) [µM] | TGI (SK-MEL-2 melanoma) [µM] | TGI (SK-MEL-28 melanoma) [µM] | TGI (SW-620 colon) [µM] | TGI (T-47D breast) [µM] | GI50 (BT-549 breast) [µM] | GI50 (HCT-116 colon) [µM] | GI50 (IGROV1 ovarian) [µM] | GI50 (K-562 leukemia) [µM] | GI50 (NCI-H460 lung) [µM] | GI50 (SF-268 CNS) [µM] | GI50 (SK-MEL-2 melanoma) [µM] | GI50 (SK-MEL-28 melanoma) [µM] | GI50 (SW-620 colon) [µM] | GI50 (T-47D breast) [µM] |
| --- | --- | --- | --- | --- | --- | --- | --- | --- | --- | --- | --- | --- | --- | --- | --- | --- | --- | --- | --- | --- |
| C[C@]12C[C@H](O)[C@H]3[C@@H](CCC4=CC(=O)CC[C@@]43C)[C@@H]1CC[C@@H]2c1csc(-c2ccccc2)n1 | > 100 | > 100 | > 100 | > 100 | > 100 | > 100 | > 90.5 | > 100 | > 100 | > 100 | – | – | – | – | – | – | – | – | – | – |
| CCOC(=O)/C=C/c1cccc(F)c1 | > 100 | > 100 | > 100 | > 100 | > 100 | > 100 | > 100 | > 100 | > 100 | > 100 | – | – | – | – | – | – | – | – | – | – |
| C=C1CCC2C3(C)COC(c4ccccc4Cl)OC3CCC2(C)C1/C=C/C1=CCOC1=O (stereo unspecified) | 72.9 | > 100 | > 100 | > 100 | > 100 | > 100 | > 100 | > 100 | > 100 | > 100 | 3.55 | 4.48 | > 100 | 3.61 | 5.96 | > 100 | 77.7 | > 100 | 25 | 3.39 |
| O=C[C@@H](CO)O[C@H](C=O)n1cnc2c(=O)[nH]cnc21 | 2370 | 1270 | 1360 | 496 | 2130 | 1840 | 1400 | 1530 | 868 | 404 | – | – | – | – | – | – | – | – | – | – |
| CCOC(=O)C1=C(C)NC(c2ccco2)=C(C#N)C1c1cccc([N+](=O)[O-])c1 (stereo unspecified) | 18 | 4.17 | 3.28 | – | 0.432 | 41.4 | 24.3 | 22.5 | 1.73 | – | 0.153 | – | 0.0157 | 0.0194 | 0.0633 | 0.0783 | 0.0115 | 0.0105 | 0.0101 | 20.9 |
| COc1cc(CNc2oc(-c3ccccc3)c(-c3ccccc3)c2C#N)cc(CN2CCN(C)CC2)c1O | 3.42 | 4.17 | 3.25 | 4.16 | 3.55 | 3.7 | 4.56 | 3.24 | 3.33 | 4.17 | 1.71 | 1.55 | 1.58 | 1.51 | 1.89 | 1.79 | 2.17 | 1.78 | 1.72 | 1.91 |
| CC/C(=C/c1ccc(OC)cc1OC)[N+](=O)[O-] | 15.3 | 3.23 | 11.5 | 61.5 | 7.56 | 12.7 | 8.73 | 6.51 | 4.93 | 5.06 | 4.15 | 1.65 | 3.4 | 2.91 | 2.71 | 3.28 | 2.64 | 2.51 | 2.28 | 1.72 |
| C=C1C(=O)O[C@H]2C[C@@H]1C(=O)CC(C)CCCC(C)=CCC[C@@]2(C)O (stereo partly specified) | > 25 | > 25 | > 25 | – | > 25 | > 25 | > 25 | > 25 | > 25 | > 25 | – | – | – | – | – | – | – | – | – | – |
